Data published in paper PMC3177608 (ACS chemical biology, 2011).
Several values for one entry are separate records, joined by “and”; a condition that tells them apart may be missing. Equal entries are not always repeated. Entries after “also recorded” stand apart in the source; their conditions may differ. One block for each molecule: values may come before it.

Tests used:
Kir2.1 [1] = target: T1, Kir2.1 (Mus musculus, UniProt P35561); experiment: whole cell
T1 sequence (P35561 1-428): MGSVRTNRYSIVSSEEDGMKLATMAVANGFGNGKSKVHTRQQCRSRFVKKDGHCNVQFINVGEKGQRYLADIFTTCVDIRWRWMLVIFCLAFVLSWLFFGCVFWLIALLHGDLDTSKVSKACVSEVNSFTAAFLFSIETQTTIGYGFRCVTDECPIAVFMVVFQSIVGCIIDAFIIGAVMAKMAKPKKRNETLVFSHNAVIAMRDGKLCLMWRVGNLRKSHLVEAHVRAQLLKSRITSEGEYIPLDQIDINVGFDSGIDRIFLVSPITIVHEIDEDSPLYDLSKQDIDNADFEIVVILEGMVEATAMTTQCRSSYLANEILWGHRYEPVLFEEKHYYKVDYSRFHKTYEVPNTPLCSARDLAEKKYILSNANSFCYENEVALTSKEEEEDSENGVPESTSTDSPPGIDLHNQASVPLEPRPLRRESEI

Kir2.1 [2] = target: T1, Kir2.1; experiment: inside-out patch, compound applied from intracellular side; assay type: cell-based; settings: IC50 Kir2.1, inside-out patch, pH 6.5, applied from intracellular side
Kir1.1 = target: T2, Kir1.1 (Rattus norvegicus, UniProt P35560); experiment: whole cell patch clamp, Kir1.1; assay type: cell-based
T2 sequence (P35560 1-391): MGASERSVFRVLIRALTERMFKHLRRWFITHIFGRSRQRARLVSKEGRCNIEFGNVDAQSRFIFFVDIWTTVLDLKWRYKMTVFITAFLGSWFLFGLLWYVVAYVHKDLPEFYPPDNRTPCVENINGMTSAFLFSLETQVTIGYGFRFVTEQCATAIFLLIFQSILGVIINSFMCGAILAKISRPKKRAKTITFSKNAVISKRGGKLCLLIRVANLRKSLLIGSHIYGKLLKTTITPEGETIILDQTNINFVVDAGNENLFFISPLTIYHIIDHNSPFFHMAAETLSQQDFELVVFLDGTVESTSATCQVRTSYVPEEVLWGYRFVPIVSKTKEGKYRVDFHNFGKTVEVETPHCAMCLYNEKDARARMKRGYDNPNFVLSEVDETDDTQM

C25 chimera = target: T3, C25 chimera (Mus musculus, UniProt P35561, A121P/A131S/A173S/C101L/C149F/C169V/C89I/D114R/D152E/D172N/DEL116-120/E125N/E153Q/F103W/F129M/F98L/G111K/I106V/I137L/I156T/I175M/I176C/I87V/INS113PEFYPPDN/L105V/L108Y/L109V/L90T/L94G/L97F/M160L/M180L/P155A/S124E/S128G/T141V/V102L/V126I/V158I/V161L/V162I/V167L/V179I/V86T/V93L/W104Y); experiment: patch clamp, C25 chimera; assay type: cell-based, mouse/rat; settings: for inhibition of C25 current: pH 7.4
T3 sequence (P35561 with tags, fused parts or gaps V86T/I87V/C89I/L90T/V93L/L94G/L97F/F98L/C101L/V102L/F103W/W104Y/L105V/I106V/L108Y/L109V/G111K/INS113PEFYPPDN/D114R/DEL116-120/A121P/S124E/E125N/V126I/S128G/F129M/A131S/I137L/T141V/C149F/D152E/E153Q/P155A/I156T/V158I/M160L/V161L/V162I/V167L/C169V/D172N/A173S/I175M/I176C/V179I/M180L): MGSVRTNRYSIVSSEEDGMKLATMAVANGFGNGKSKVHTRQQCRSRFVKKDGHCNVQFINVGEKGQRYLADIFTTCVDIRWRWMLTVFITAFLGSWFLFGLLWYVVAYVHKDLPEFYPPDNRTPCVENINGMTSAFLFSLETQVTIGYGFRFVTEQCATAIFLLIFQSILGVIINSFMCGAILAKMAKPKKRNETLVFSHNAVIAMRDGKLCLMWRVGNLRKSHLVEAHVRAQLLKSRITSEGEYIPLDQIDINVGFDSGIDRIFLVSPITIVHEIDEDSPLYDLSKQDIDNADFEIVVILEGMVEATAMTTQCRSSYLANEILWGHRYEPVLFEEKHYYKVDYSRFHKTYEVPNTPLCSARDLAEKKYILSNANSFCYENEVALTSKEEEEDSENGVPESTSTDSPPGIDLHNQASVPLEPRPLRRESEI

L-type calcium channels = experiment: Ricerca Lead Profiling Screen radioligand binding
N-type calcium channels = N-type calcium channels (Rattus norvegicus, UniProt Q02294); experiment: Ricerca Lead Profiling Screen radioligand binding
hERG = hERG (Homo sapiens, UniProt Q12809); experiment: Ricerca Lead Profiling Screen radioligand binding
[3] = Ricerca Lead Profiling Screen, 68 radioligand binding assays; settings: GPCRs, ion channels and transporters
1A2 = 1A2 (Homo sapiens, UniProt P05177)
2D6 = 2D6 (Homo sapiens, UniProt P10635)
[4] = PubChem database; cited from earlier work
3A4 = 3A4 (Homo sapiens, UniProt P08684); experiment: CYP450 inhibition assay
2C9 = 2C9 (Homo sapiens, UniProt P11712); experiment: CYP450 inhibition assay
[5] = intrinsic clearance, human
C25 N172D = C25 N172D (Mus musculus, UniProt P35561, A121P/A131S/A173S/C101L/C149F/C169V/C89I/D114R/D152E/DEL116-120/E125N/E153Q/F103W/F129M/F98L/G111K/I106V/I137L/I156T/I175M/I176C/I87V/INS113PEFYPPDN/L105V/L108Y/L109V/L90T/L94G/L97F/M160L/M180L/P155A/S124E/S128G/T141V/V102L/V126I/V158I/V161L/V162I/V167L/V179I/V86T/V93L/W104Y); experiment: patch clamp, C25 N172D mutant; settings: pH 7.4
hKir2.3 = hKir2.3 (Homo sapiens, UniProt P48050); experiment: whole cell patch clamp, Kir2.3
hKir2.6 = hKir2.6 (Homo sapiens, UniProt B7U540); experiment: whole cell patch clamp, Kir2.6
rKir4.1 = rKir4.1 (Rattus norvegicus, UniProt P49655); experiment: whole cell patch clamp, Kir4.1
hKir7.1 = hKir7.1 (Homo sapiens, UniProt O60928); experiment: whole cell patch clamp, Kir7.1; settings: IC50 Kir7.1, pH 7.4
Kir2.1 D172N = Kir2.1 D172N (Mus musculus, UniProt P35561, D172N); experiment: patch clamp, Kir2.1 D172N mutant
Kir1.1 N171D = Kir1.1 N171D (Rattus norvegicus, UniProt P35560, N171D); experiment: patch clamp, Kir1.1 N171D mutant
Kir2.1 D172N/I176C = Kir2.1 D172N/I176C (Mus musculus, UniProt P35561, D172N/I176C); experiment: patch clamp, Kir2.1 D172N/I176C mutant
Kir1.1 N171D/C175I = Kir1.1 N171D/C175I (Rattus norvegicus, UniProt P35560, C175I/N171D); experiment: patch clamp, Kir1.1 N171D/C175I mutant
C25 N172D/M175I/C176I = C25 N172D/M175I/C176I (Mus musculus, UniProt P35561, A121P/A131S/A173S/C101L/C149F/C169V/C89I/D114R/D152E/DEL116-120/E125N/E153Q/F103W/F129M/F98L/G111K/I106V/I137L/I156T/I87V/INS113PEFYPPDN/L105V/L108Y/L109V/L90T/L94G/L97F/M160L/M180L/P155A/S124E/S128G/T141V/V102L/V126I/V158I/V161L/V162I/V167L/V179I/V86T/V93L/W104Y); experiment: patch clamp, C25 N172D/M175I/C176I mutant
KATP channel = settings: read-out: KATP channel IC50; cited from earlier work
[6] = read-out: IC50 Kir2.1, pH 8.5, manual patch clamp
[7] = pH 7.4, read-out: inhibition of C25 current

Sequence of Kir1.1 N171D (P35560 whole entry N171D): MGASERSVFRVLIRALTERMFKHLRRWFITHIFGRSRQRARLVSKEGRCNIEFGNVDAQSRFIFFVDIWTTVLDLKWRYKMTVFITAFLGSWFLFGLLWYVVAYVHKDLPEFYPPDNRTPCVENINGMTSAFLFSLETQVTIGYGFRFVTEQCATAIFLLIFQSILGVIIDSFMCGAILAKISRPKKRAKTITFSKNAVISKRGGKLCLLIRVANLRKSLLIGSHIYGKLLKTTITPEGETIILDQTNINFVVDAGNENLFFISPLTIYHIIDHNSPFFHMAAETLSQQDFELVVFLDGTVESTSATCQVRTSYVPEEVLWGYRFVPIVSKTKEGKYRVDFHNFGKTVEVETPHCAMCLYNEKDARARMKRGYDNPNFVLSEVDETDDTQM
Sequence of hKir7.1 (O60928 whole entry): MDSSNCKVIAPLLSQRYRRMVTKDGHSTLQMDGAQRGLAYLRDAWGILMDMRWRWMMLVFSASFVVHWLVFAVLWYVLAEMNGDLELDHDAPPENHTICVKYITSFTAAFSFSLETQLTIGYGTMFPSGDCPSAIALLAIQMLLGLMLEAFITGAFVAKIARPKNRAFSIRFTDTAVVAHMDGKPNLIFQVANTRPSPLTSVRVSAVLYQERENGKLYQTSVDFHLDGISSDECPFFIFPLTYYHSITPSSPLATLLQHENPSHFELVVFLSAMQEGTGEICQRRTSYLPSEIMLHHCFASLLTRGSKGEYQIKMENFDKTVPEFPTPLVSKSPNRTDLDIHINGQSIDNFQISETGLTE
Sequence of Kir1.1 N171D/C175I (P35560 whole entry N171D/C175I): as the sequence (P35560 whole entry N171D) above, with C175I counted along it
Sequence of N-type calcium channels (Q02294 whole entry): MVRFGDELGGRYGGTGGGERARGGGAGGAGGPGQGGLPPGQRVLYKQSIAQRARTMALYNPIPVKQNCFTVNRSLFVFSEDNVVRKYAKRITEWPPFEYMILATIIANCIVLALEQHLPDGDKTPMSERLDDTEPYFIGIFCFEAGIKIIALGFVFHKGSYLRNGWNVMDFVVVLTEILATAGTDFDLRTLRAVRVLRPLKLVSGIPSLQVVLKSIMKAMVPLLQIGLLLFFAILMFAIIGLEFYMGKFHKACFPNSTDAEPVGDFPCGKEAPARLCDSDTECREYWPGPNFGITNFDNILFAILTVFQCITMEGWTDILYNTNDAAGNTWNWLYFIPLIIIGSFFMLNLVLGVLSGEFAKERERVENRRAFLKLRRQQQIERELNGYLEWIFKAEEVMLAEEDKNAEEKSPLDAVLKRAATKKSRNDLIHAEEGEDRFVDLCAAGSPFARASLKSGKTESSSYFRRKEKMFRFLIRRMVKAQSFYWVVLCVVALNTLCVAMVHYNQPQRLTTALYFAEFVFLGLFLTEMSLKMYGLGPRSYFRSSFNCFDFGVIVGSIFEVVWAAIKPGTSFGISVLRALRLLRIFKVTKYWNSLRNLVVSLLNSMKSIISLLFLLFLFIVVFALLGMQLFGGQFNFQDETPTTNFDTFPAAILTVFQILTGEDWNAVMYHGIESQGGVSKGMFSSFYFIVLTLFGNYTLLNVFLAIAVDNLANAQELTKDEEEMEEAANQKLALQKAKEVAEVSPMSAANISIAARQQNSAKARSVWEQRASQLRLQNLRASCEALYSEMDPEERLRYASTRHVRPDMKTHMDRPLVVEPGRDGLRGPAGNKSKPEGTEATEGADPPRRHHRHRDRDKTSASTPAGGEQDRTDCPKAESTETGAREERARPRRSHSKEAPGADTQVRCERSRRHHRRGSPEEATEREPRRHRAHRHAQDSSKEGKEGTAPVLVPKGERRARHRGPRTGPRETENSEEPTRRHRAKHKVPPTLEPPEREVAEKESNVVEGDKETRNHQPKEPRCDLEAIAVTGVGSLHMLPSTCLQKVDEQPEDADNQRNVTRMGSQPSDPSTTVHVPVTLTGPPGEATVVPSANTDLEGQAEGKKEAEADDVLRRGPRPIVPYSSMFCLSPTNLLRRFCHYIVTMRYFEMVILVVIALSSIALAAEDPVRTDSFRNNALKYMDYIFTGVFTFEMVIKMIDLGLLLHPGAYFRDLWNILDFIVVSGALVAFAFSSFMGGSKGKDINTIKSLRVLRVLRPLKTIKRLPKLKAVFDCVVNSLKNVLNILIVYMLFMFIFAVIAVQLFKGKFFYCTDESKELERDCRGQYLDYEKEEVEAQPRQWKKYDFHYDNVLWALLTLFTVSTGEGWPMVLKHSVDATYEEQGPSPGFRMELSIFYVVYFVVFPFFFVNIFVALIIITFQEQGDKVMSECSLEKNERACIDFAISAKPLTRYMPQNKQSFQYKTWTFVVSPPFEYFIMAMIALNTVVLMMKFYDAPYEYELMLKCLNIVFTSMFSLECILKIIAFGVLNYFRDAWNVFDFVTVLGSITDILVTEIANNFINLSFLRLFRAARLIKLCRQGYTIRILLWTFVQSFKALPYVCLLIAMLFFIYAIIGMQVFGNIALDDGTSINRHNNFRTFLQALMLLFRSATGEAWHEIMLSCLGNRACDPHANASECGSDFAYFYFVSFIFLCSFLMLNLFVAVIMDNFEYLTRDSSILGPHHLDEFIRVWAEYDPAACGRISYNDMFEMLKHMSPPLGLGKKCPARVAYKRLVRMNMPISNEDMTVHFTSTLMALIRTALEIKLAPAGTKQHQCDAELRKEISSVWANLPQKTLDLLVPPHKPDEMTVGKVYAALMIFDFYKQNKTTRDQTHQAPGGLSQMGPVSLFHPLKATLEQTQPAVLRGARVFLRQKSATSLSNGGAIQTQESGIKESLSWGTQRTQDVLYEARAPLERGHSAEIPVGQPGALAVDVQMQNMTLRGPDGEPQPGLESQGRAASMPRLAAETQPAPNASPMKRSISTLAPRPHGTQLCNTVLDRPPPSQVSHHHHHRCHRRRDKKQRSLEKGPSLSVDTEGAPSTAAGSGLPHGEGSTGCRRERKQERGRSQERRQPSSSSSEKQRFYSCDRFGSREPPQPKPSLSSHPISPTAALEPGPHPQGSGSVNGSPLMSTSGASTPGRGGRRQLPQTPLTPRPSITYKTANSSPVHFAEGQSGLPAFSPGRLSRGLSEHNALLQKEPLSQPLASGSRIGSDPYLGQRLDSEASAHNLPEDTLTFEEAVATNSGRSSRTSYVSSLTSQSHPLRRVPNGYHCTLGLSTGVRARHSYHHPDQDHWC
Sequence of hERG (Q12809 whole entry): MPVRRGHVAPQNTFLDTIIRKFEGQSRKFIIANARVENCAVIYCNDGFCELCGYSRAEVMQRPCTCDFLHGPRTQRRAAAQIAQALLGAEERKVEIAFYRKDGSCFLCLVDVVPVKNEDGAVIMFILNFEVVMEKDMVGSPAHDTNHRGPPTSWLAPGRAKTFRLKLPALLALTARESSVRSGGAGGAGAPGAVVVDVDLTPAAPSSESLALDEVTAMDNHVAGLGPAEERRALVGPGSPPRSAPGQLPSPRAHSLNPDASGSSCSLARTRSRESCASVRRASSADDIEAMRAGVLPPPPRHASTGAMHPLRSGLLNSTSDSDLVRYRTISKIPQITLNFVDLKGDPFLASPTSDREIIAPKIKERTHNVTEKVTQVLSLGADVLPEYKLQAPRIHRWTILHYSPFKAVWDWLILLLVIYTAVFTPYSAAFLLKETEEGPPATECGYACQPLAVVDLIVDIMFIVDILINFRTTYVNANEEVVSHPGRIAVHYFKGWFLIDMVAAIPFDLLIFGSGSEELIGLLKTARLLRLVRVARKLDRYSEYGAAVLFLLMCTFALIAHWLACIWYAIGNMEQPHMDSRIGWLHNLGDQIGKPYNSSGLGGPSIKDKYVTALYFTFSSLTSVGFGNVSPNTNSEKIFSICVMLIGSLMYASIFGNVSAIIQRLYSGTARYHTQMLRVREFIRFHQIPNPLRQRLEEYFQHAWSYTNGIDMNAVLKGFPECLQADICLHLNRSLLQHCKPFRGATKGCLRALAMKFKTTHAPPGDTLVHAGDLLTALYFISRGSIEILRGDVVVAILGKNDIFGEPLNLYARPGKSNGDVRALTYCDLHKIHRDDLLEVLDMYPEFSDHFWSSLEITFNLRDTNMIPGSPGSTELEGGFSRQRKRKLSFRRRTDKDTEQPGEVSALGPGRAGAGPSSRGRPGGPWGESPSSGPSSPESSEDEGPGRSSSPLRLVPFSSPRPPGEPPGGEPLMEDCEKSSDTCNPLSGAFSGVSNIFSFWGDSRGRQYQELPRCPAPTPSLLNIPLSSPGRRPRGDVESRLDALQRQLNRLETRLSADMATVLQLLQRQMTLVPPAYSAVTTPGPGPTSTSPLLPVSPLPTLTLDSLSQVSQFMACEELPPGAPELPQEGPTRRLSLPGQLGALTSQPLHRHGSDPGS
Sequence of 1A2 (P05177 whole entry): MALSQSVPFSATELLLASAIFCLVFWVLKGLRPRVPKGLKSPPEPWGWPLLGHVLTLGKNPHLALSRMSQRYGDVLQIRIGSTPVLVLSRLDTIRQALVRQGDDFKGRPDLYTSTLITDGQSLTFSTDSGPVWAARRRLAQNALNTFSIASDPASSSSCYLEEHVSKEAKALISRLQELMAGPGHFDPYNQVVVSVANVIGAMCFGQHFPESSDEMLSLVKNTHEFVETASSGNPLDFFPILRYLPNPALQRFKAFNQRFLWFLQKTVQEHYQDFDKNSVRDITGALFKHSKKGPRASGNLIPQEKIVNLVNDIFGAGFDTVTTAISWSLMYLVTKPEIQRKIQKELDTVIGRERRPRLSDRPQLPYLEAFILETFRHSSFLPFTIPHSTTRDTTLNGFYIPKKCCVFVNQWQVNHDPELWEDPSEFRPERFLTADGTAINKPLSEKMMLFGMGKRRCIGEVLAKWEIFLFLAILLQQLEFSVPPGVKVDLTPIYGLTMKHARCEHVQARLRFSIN

Structure (SMILES): COc1ccc(CNCc2ccc(Cl)cc2Cl)cc1 [13c]
- IC50 (Kir2.1 [1]; [6]): 3.89 µM

Structure (SMILES): COc1ccc(CNCc2ccc(OC)cc2)cc1 [14g]
- IC50 (Kir2.1 [1]; read-out: IC50 Kir2.1, pH 7.4, whole cell, compound applied extracellularly): 35 µM

Structure (SMILES): COc1ccc(CNCc2cccc3ccccc23)cc1 [ML133, N-(4-methoxybenzyl)-1-(naphthalen-1-yl)methanamine]
- IC50 (Kir2.1 [2]): 2.6 µM
- IC50 (Kir1.1; IC50 Kir1.1 (estimated), pH 8.5): 85.5 µM
- IC50 (Kir1.1; IC50 Kir1.1, pH 7.4): > 300 µM
- effect on Kir1.1 current (Kir1.1; pH 7.4, up to 300 μM): essentially insensitive; also recorded: not inhibited
- inhibition of C25 current (C25 chimera; 30 μM): resistant
- inhibition of C25 current (C25 chimera; 100 μM): slightly inhibited
- inhibition at 30 µM (C25 chimera; [7]): < 20%
- inhibition at 100 µM (C25 chimera; [7]): ~30%
- activity at L-type calcium channels (L-type calcium channels): inactive
- activity at N-type calcium channels (N-type calcium channels): inactive
- activity at hERG (hERG): inactive
- ancillary pharmacology in 68-assay radioligand binding panel [3]: clean ancillary pharmacology; also recorded: clean profile
- IC50 (1A2): 3.3 µM
- IC50 (2D6): 0.13 µM
- activity in MLPCN HTS assays not based on Kir2.1 [4]: inactive in all but two of 213 MLPCN HTS assays
- protein bound (protein binding, rat): > 99%
- protein bound (protein binding, human): > 99%
- IC50 (3A4): > 30 µM
- IC50 (2C9): > 30 µM
- intrinsic clearance (intrinsic clearance, rat): high intrinsic clearance
- intrinsic clearance [5]: high intrinsic clearance
- IC50 (C25 N172D; IC50 C25 N172D): 75 µM and 75.2 µM
- Hill coefficient (NH) C25 N172D (C25 N172D): 2.2
- IC50 (hKir2.3): 4 µM
- IC50 (hKir2.6): 2.8 µM
- IC50 (rKir4.1): 76 µM
- IC50 (hKir7.1): 33 µM and 32.9 µM
- Hill coefficient (NH) Kir2.1 D172N (Kir2.1 D172N): 1.3
- IC50 (Kir2.1 D172N; IC50 Kir2.1 D172N, pH 7.4): 15 µM and 15.4 µM
- Hill coefficient (NH) Kir1.1 N171D (Kir1.1 N171D): 1.6
- IC50 (Kir1.1 N171D): 83.6 µM
- Hill coefficient (NH) Kir2.1 D172N/I176C (Kir2.1 D172N/I176C): 1.8
- IC50 (Kir2.1 D172N/I176C; IC50 Kir2.1 D172N/I176C, pH 7.4): 45 µM and 43.6 µM
- Hill coefficient (NH) Kir1.1 N171D/C175I (Kir1.1 N171D/C175I): 2.3
- IC50 (Kir1.1 N171D/C175I): 64 µM
- IC50 (C25 N172D/M175I/C176I): 5.8 µM
- Hill coefficient (NH) C25 triple mutant (C25 N172D/M175I/C176I; pH 7.4): 1.1
- effect on Kir2.1 currents (Kir2.1 [1]; 3 μM, pH 6.5, 20 minute incubation): no significant effect
- time to complete inhibition of Kir2.1 (Kir2.1 [1]; 3 μM, pH 8.5): ≤ 5 min
- wash out of compound effects (Kir2.1 [1]; 3 μM, pH 8.5): approximately 10 minutes
- IC50 (Kir2.1 [1]; IC50 Kir2.1, pH 6.5, whole cell): 10 µM
- IC50 (Kir2.1 [1]; IC50 Kir2.1, pH 8.5, manual patch clamp): 0.29 µM
- Hill coefficient (NH) Kir2.1 (Kir2.1 [1]; pH 6.5): 1.8
- Hill coefficient (NH) Kir2.1 (Kir2.1 [1]; pH 7.4): 1.7
- Hill coefficient (NH) Kir2.1 (Kir2.1 [1]; pH 8.5): 4.0

Structure (SMILES): [Ba+2] [barium, reference compound]
- inhibition of Kir1.1 (Kir1.1; 5 mM): completely inhibited
- inhibition of Kir1.1 current (Kir1.1; at the end of the recording): over 85%

Further lines, results first:

- IC50 (Kir2.1 [1]; [6]): 0.77 µM
Structure (SMILES): COc1ccc(CNCc2ccc(Cl)cc2)cc1 [14a]

- IC50 (Kir2.1 [1]; [6]): 1.06 µM
Structure (SMILES): COc1ccc(CNCc2cccc(Cl)c2)cc1 [14b]

- IC50 (Kir2.1 [1]; [6]): 1.39 µM
Structure (SMILES): COc1ccc(CNCc2ccc(C(C)(C)C)cc2)cc1 [14d]

- IC50 (Kir2.1 [1]; [6]): 5.15 µM
Structure (SMILES): COc1ccc(CNCc2ccccc2C)cc1 [14e]

- IC50 (Kir2.1 [1]; [6]): 13.9 µM
Structure (SMILES): COc1ccc(CNCc2ccccc2Cl)cc1 [14j]
